Experimental data taken from ChEMBL document CHEMBL2412951, “Resonance light scattering technique as a new tool to determine the binding mode of anticancer drug oridonin to DNA” (Eur J Med Chem, 2013).
The source made the active and inactive calls. No cut-off for these calls is given here.

Tests used:
Assay type in all cases: nucleic-acid assay
Conditions in all cases: Bos taurus
[1] = test system: DNA; assay: Binding affinity to calf thymus DNA at 90 uM at pH 2 to 8.5 by resonance light scattering analysis
[2] = test system: DNA; assay: Binding affinity to calf thymus DNA at 1 ug/ml at pH 2.5 by SEM analysis
[3] = test system: DNA; assay: Binding affinity to calf thymus DNA at 10 to 160 uM by resonance light scattering analysis
[4] = test system: Calf thymus DNA; assay: Binding affinity to calf thymus double helix DNA at 90 uM by resonance light scattering analysis in presence of 0.005 to 0.2 M NaCl
[5] = test system: DNA; assay: Binding affinity to calf thymus DNA at 1 X 10^-5 M by spectrofluorimetric analysis
[6] = test system: Calf thymus DNA; assay: Binding affinity to calf thymus dsDNA at 1 X 10^-5 to 2 x 10^-5 M after 10 mins by UV/vis spectrophotometric analysis
[7] = test system: DNA; assay: Binding affinity to calf thymus DNA by Stern-Volmer plot analysis
[8] = test system: DNA; assay: Binding affinity to calf thymus DNA at 10^-5 M by atomic force microscopic analysis
[9] = test system: DNA; assay: Binding affinity to calf thymus DNA at 5 X 10^-5 M by fluorescence polarization assay

Question: For `C=C1C(=O)[C@]23[C@H](O)[C@H]1CC[C@H]2[C@@]12CO[C@]3(O)[C@@H](O)[C@@H]1C(C)(C)CC[C@@H]2O`, which Activity [1] is on record?
Answer: Its Activity is “Active”.

Question: And the Activity [2]?
Answer: The Activity was “Active”.

Question: And the Activity [3]?
Answer: The Activity was “Active”.

Question: And the Activity [4]?
Answer: Its Activity is “Active”.

Question: What about the Activity [5] of the same compound?
Answer: Its Activity is “Active”.

Question: And the Activity [6]?
Answer: The Activity was “Active”.

Question: And the KSV [7]?
Answer: The KSV was 1.79 ×10⁵ /M.

Question: What about the Activity [8] of the same compound?
Answer: The Activity was “Active”.

Question: What about the Activity [9] of the same compound?
Answer: The Activity was “Active”.
